# Numbered stars: 1 amine (or outer) side, 2 acyl side, 3 side chain; on linkers, the order of the positions; unused ones are H or OH. Side chains are listed from the residue outwards. Peptide text beside a SMILES is read from it. * marks the point of attachment. C18 diacid = O=C(O)CCCCCCCCCCCCCCCCC(=O)*; C16 diacid = O=C(O)CCCCCCCCCCCCCCC(=O)*; γGlu = O=C(O)[C@H](CCC(=O)[*:2])N[*:1]; AEEA = NCCOCCOCC(=O)O
# How the values were obtained:
# glucagon receptor = biological target: T1, glucagon receptor (Homo sapiens, UniProt P47871); test: Assay (I) Glucagon activity (cAMP biosensor, FLIPR); type: cell-based
# T1 construct: expressed in transfected cells
# [1] = Assay (X) Chemical stability assessment by RP-UPLC; type: physicochemical; settings: pH 8.15, 14 days at 37° C. vs 5° C., 333 μM
# T1 sequence (P47871 26-477): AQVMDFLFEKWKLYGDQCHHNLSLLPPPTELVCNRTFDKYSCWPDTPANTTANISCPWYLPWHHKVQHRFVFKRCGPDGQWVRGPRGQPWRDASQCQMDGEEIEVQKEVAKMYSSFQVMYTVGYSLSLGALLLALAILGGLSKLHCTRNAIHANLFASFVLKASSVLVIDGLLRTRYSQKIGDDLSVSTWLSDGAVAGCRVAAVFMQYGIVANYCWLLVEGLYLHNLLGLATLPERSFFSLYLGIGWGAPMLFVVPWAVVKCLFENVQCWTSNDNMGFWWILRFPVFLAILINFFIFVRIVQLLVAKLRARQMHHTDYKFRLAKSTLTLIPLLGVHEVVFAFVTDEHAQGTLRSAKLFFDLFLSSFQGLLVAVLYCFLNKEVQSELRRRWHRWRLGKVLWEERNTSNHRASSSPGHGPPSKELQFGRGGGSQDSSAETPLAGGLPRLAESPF
structure (smiles),measurement,setting,value
"CC(C)C[C@H](NC(=O)[C@H](Cc1ccc(O)cc1)NC(=O)[C@H](CCCCN)NC(=O)[C@H](CO)NC(=O)[C@H](Cc1ccc(O)cc1)NC(=O)[C@H](CC(=O)O)NC(=O)[C@H](CO)NC(=O)[C@@H](NC(=O)[C@H](Cc1ccccc1)NC(=O)[C@@H](NC(=O)CNC(=O)[C@H](CCC(N)=O)NC(=O)[C@H](CO)NC(=O)[C@@H](N)Cc1c[nH]cn1)[C@@H](C)O)[C@@H](C)O)C(=O)N[C@@H](CC(=O)O)C(=O)N[C@@H](C)C(=O)N[C@@H](CCCNC(=N)N)C(=O)N[C@@H](CCCNC(=N)N)C(=O)N[C@@H](C)C(=O)N[C@@H](CCC(N)=O)C(=O)N[C@@H](CC(=O)O)C(=O)N[C@@H](Cc1ccccc1)C(=O)N[C@H](C(=O)N[C@@H](CCCCNC(=O)CC[C@H](NC(=O)CC[C@H](NC(=O)COCCOCCNC(=O)COCCOCCNC(=O)CC[C@H](NC(=O)CCCCCCCCCCCCCCC(=O)O)C(=O)O)C(=O)O)C(=O)O)C(=O)N[C@@H](Cc1c[nH]c2ccccc12)C(=O)N[C@@H](CC(C)C)C(=O)N[C@@H](CC(C)C)C(=O)N[C@@H](CO)C(=O)N[C@H](C(=O)O)[C@@H](C)O)C(C)C [Example 83, N^ε24-[(4S)-4-carboxy-4-[[(4S)-4-carboxy-4-[[2-[2-[2-[[2-[2-[2-[[(4S)-4-carboxy-4-(15-carboxypentadecanoylamino)butanoyl]amino]ethoxy]ethoxy]acetyl]amino]ethoxy]ethoxy]acetyl]amino]butanoyl]amino]butanoyl]-[Ala16,Lys24,Leu27,Ser28]-Glucagon]",EC50,glucagon receptor,0.016 nM
same,Chemical stability [Purity loss/14 days 37 C.],[1],10.3%
"CC(C)C[C@H](NC(=O)[C@H](Cc1ccc(O)cc1)NC(=O)[C@H](CCCNC(=N)N)NC(=O)[C@H](CO)NC(=O)[C@H](Cc1ccc(O)cc1)NC(=O)[C@H](CC(=O)O)NC(=O)[C@H](CO)NC(=O)[C@@H](NC(=O)[C@H](Cc1ccccc1)NC(=O)[C@@H](NC(=O)CNC(=O)[C@H](CCC(N)=O)NC(=O)[C@H](CO)NC(=O)[C@@H](N)Cc1c[nH]cn1)[C@@H](C)O)[C@@H](C)O)C(=O)N[C@@H](CC(=O)O)C(=O)N[C@@H](C)C(=O)N[C@@H](CCCNC(=N)N)C(=O)N[C@@H](CCCNC(=N)N)C(=O)N[C@@H](C)C(=O)N[C@@H](CCC(N)=O)C(=O)N[C@@H](CC(=O)O)C(=O)N[C@@H](Cc1ccccc1)C(=O)N[C@H](C(=O)N[C@@H](CCCCNC(=O)CC[C@H](NC(=O)CC[C@H](NC(=O)COCCOCCNC(=O)COCCOCCNC(=O)CC[C@H](NC(=O)CCCCCCCCCCCCCCC(=O)O)C(=O)O)C(=O)O)C(=O)O)C(=O)N[C@@H](Cc1c[nH]c2ccccc12)C(=O)N[C@@H](CC(C)C)C(=O)N[C@@H](CC(C)C)C(=O)N[C@@H](CO)C(=O)N[C@H](C(=O)O)[C@@H](C)O)C(C)C [Example 84, N^ε24-[(4S)-4-carboxy-4-[[(4S)-4-carboxy-4-[[2-[2-[2-[[2-[2-[2-[[(4S)-4-carboxy-4-(15-carboxypentadecanoylamino)butanoyl]amino]ethoxy]ethoxy]acetyl]amino]ethoxy]ethoxy]acetyl]amino]butanoyl]amino]butanoyl]-[Arg12,Ala16,Lys24,Leu27,Ser28]-Glucagon] (H-HSQGTFTSDYSRYLDARRAQDFVK([γGlu-γGlu-AEEA-AEEA-γGlu-C16 diacid])WLLST-OH)",EC50,glucagon receptor,0.022 nM
same,Chemical stability [Purity loss/14 days 37 C.],[1],10.7%
"CC(C)C[C@H](NC(=O)[C@H](CC(=O)O)NC(=O)[C@H](CC(C)C)NC(=O)[C@H](Cc1ccc(O)cc1)NC(=O)[C@H](CCCCN)NC(=O)[C@H](CO)NC(=O)[C@H](Cc1ccc(O)cc1)NC(=O)[C@H](CC(=O)O)NC(=O)[C@H](CO)NC(=O)[C@@H](NC(=O)[C@H](Cc1ccccc1)NC(=O)[C@@H](NC(=O)CNC(=O)[C@H](CCC(N)=O)NC(=O)[C@H](CO)NC(=O)[C@@H](N)Cc1c[nH]cn1)[C@@H](C)O)[C@@H](C)O)C(=O)N[C@@H](CCCNC(=N)N)C(=O)N[C@@H](CCCNC(=N)N)C(=O)N[C@@H](C)C(=O)N[C@@H](CCC(N)=O)C(=O)N[C@@H](CC(=O)O)C(=O)N[C@@H](Cc1ccccc1)C(=O)N[C@H](C(=O)N[C@@H](CCCCNC(=O)CC[C@H](NC(=O)CC[C@H](NC(=O)COCCOCCNC(=O)COCCOCCNC(=O)CC[C@H](NC(=O)CCCCCCCCCCCCCCC(=O)O)C(=O)O)C(=O)O)C(=O)O)C(=O)N[C@@H](Cc1c[nH]c2ccccc12)C(=O)N[C@@H](CC(C)C)C(=O)N[C@@H](CC(C)C)C(=O)N[C@@H](CO)C(=O)N[C@H](C(=O)O)[C@@H](C)O)C(C)C [Example 85, N^ε24-[(4S)-4-carboxy-4-[[(4S)-4-carboxy-4-[[2-[2-[2-[[2-[2-[2-[[(4S)-4-carboxy-4-(15-carboxypentadecanoylamino)butanoyl]amino]ethoxy]ethoxy]acetyl]amino]ethoxy]ethoxy]acetyl]amino]butanoyl]amino]butanoyl]-[Leu16,Lys24,Leu27,Ser28]-Glucagon]",EC50,glucagon receptor,0.039 nM
same,Chemical stability [Purity loss/14 days 37 C.],[1],7.4%
"CC(C)C[C@H](NC(=O)[C@H](CC(=O)O)NC(=O)[C@H](CC(C)C)NC(=O)[C@H](Cc1ccc(O)cc1)NC(=O)[C@H](CCCNC(=N)N)NC(=O)[C@H](CO)NC(=O)[C@H](Cc1ccc(O)cc1)NC(=O)[C@H](CC(=O)O)NC(=O)[C@H](CO)NC(=O)[C@@H](NC(=O)[C@H](Cc1ccccc1)NC(=O)[C@@H](NC(=O)CNC(=O)[C@H](CCC(N)=O)NC(=O)[C@H](CO)NC(=O)[C@@H](N)Cc1c[nH]cn1)[C@@H](C)O)[C@@H](C)O)C(=O)N[C@@H](CCCNC(=N)N)C(=O)N[C@@H](CCCNC(=N)N)C(=O)N[C@@H](C)C(=O)N[C@@H](CCC(N)=O)C(=O)N[C@@H](CC(=O)O)C(=O)N[C@@H](Cc1ccccc1)C(=O)N[C@H](C(=O)N[C@@H](CCCCNC(=O)CC[C@H](NC(=O)CC[C@H](NC(=O)CC[C@H](NC(=O)CC[C@H](NC(=O)CCCCCCCCCCCCCCCCC(=O)O)C(=O)O)C(=O)O)C(=O)O)C(=O)O)C(=O)N[C@@H](Cc1c[nH]c2ccccc12)C(=O)N[C@@H](CC(C)C)C(=O)N[C@@H](CC(C)C)C(=O)N[C@@H](CO)C(=O)N[C@H](C(=O)O)[C@@H](C)O)C(C)C [Example 86, N^ε24-[(4S)-4-carboxy-4-[[(4S)-4-carboxy-4-[[(4S)-4-carboxy-4-[[(4S)-4-carboxy-4-(17-carboxyheptadecanoylamino)butanoyl]amino]butanoyl]amino]butanoyl]amino]butanoyl]-[Arg12,Leu16,Lys24,Leu27,Ser28]-Glucagon] (H-HSQGTFTSDYSRYLDLRRAQDFVK([γGlu-γGlu-γGlu-γGlu-C18 diacid])WLLST-OH)",EC50,glucagon receptor,0.343 nM
same,Chemical stability [Purity loss/14 days 37 C.],[1],3.7%
"CC(C)C[C@H](NC(=O)[C@H](CC(C)C)NC(=O)[C@H](Cc1c[nH]c2ccccc12)NC(=O)[C@H](CCCCNC(=O)CC[C@H](NC(=O)CC[C@H](NC(=O)COCCOCCNC(=O)COCCOCCNC(=O)CC[C@H](NC(=O)CCCCCCCCCCCCCCCCC(=O)O)C(=O)O)C(=O)O)C(=O)O)NC(=O)[C@@H](NC(=O)[C@H](Cc1ccccc1)NC(=O)[C@H](CC(=O)O)NC(=O)[C@H](CCC(N)=O)NC(=O)[C@H](C)NC(=O)[C@H](CCCNC(=N)N)NC(=O)[C@H](CCCNC(=N)N)NC(=O)[C@H](CC(C)C)NC(=O)[C@H](CC(=O)O)NC(=O)[C@H](CC(C)C)NC(=O)[C@H](Cc1ccc(O)cc1)NC(=O)[C@H](CCCNC(=N)N)NC(=O)[C@H](CO)NC(=O)[C@H](Cc1ccc(O)cc1)NC(=O)[C@H](CC(=O)O)NC(=O)[C@H](CO)NC(=O)[C@@H](NC(=O)[C@H](Cc1ccccc1)NC(=O)[C@@H](NC(=O)CNC(=O)[C@H](CCC(N)=O)NC(=O)[C@H](CO)NC(=O)[C@@H](N)Cc1c[nH]cn1)[C@@H](C)O)[C@@H](C)O)C(C)C)C(=O)N[C@@H](C)C(=O)N[C@H](C(=O)O)[C@@H](C)O [Example 87, N^ε24-[(4S)-4-carboxy-4-[[(4S)-4-carboxy-4-[[2-[2-[2-[[2-[2-[2-[[(4S)-4-carboxy-4-(17-carboxyheptadecanoylamino)butanoyl]amino]ethoxy]ethoxy]acetyl]amino]ethoxy]ethoxy]acetyl]amino]butanoyl]amino]butanoyl]-[Arg12,Leu16,Lys24,Leu27,Ala28]-Glucagon] (H-HSQGTFTSDYSRYLDLRRAQDFVK([γGlu-γGlu-AEEA-AEEA-γGlu-C18 diacid])WLLAT-OH)",EC50,glucagon receptor,0.253 nM
same,Chemical stability [Purity loss/14 days 37 C.],[1],5.8%
"CC(C)C[C@H](NC(=O)[C@H](CC(C)C)NC(=O)[C@H](Cc1c[nH]c2ccccc12)NC(=O)[C@H](CCCCNC(=O)CC[C@H](NC(=O)CC[C@H](NC(=O)COCCOCCNC(=O)COCCOCCNC(=O)CC[C@H](NC(=O)CCCCCCCCCCCCCCCCC(=O)O)C(=O)O)C(=O)O)C(=O)O)NC(=O)[C@@H](NC(=O)[C@H](Cc1ccccc1)NC(=O)[C@H](CC(=O)O)NC(=O)[C@H](CCC(N)=O)NC(=O)[C@H](C)NC(=O)[C@H](CCCNC(=N)N)NC(=O)[C@H](CCCNC(=N)N)NC(=O)[C@H](CC(C)C)NC(=O)[C@H](CC(=O)O)NC(=O)[C@H](CC(C)C)NC(=O)[C@H](Cc1ccc(O)cc1)NC(=O)[C@H](CCCNC(=N)N)NC(=O)[C@H](CO)NC(=O)[C@H](Cc1ccc(O)cc1)NC(=O)[C@H](CC(=O)O)NC(=O)[C@H](CO)NC(=O)[C@@H](NC(=O)[C@H](Cc1ccccc1)NC(=O)[C@@H](NC(=O)CNC(=O)[C@H](CCC(N)=O)NC(=O)[C@H](CO)NC(=O)[C@@H](N)Cc1c[nH]cn1)[C@@H](C)O)[C@@H](C)O)C(C)C)C(=O)NCC(=O)N[C@H](C(=O)O)[C@@H](C)O [Example 88, N^ε24-[(4S)-4-carboxy-4-[[(4S)-4-carboxy-4-[[2-[2-[2-[[2-[2-[2-[[(4S)-4-carboxy-4-(17-carboxyheptadecanoylamino)butanoyl]amino]ethoxy]ethoxy]acetyl]amino]ethoxy]ethoxy]acetyl]amino]butanoyl]amino]butanoyl]-[Arg12,Leu16,Lys24,Leu27,Gly28]-Glucagon] (H-HSQGTFTSDYSRYLDLRRAQDFVK([γGlu-γGlu-AEEA-AEEA-γGlu-C18 diacid])WLLGT-OH)",EC50,glucagon receptor,0.47 nM
same,Chemical stability [Purity loss/14 days 37 C.],[1],4.7%
